Common to all, as to assay type: biochemical
Details in all cases: ADP-Glo SIK kinase assay

One experiment concerns the target T1, SIK3 (Homo sapiens, UniProt Q9Y2K2).
T1 construct: purchased SignalChem S12-11G-100
The experiment in a line: ADP-Glo kinase assay, SIK3. As for the experimental part: (§1) The ADP-Glo™ kinase assay is a luminescent technology assay which measures the ADP formed from a kinase reaction. […] In a second step the kinase reactions are terminated and all the remaining ATP is depleted. In a final step the ADP is converted into ATP and this newly synthesized ATP is measured by using a luciferase/luciferin reaction. The generated light is measured using an Envision plate reader, wherein the luminescent signal obtained positively correlates with the kinase activity.
(§2) 1% DMSO and 10 μM staurosporine final concentrations are used as negative and positive controls.
(§3) 2 μL enzyme-substrate mixture is added to the assay plates.
(§4) The reaction is started by adding 2 μL diluted ATP on the assay plates. Plates are centrifuged for a few seconds at 1000 rpm and gently shaken for 2 min followed by an incubation at RT for 120 min.
(§5) The reactions are stopped and the unconsumed ATP is depleted by adding 5 μL ADP-Glo Reagent (Promega, Cat #V912B) to the reaction. The plates are centrifuged for a few seconds at 1000 rpm and incubated at RT for 40 min (ATP depletion).
(§6) The ADP is converted to ATP and luciferase and luciferin is introduced to detect ATP by adding 10 μL Kinase Detection Reagent (Promega, Cat #V913B+V914B) to the reaction. The plates are centrifuged for a few seconds at 1000 rpm and incubated at RT for 30 min (ADP detection).
(§7) Luminescence is measured on an Envision plate reader (PerkinElmer Inc.).

The next experiment has as its target T2, SIK1 (Homo sapiens, UniProt P57059).
T2 construct: purchased Carna Biosciences 02-131
In words: ADP-Glo kinase assay, SIK1. As for the experimental part: as §1, §2, §3, §4, §5, §6, §7

In another experiment the target is T3, SIK2 (Homo sapiens, UniProt Q9H0K1).
T3 construct: purchased ThermoFisher Scientific PV4792
T3 sequence (Q9H0K1 whole entry): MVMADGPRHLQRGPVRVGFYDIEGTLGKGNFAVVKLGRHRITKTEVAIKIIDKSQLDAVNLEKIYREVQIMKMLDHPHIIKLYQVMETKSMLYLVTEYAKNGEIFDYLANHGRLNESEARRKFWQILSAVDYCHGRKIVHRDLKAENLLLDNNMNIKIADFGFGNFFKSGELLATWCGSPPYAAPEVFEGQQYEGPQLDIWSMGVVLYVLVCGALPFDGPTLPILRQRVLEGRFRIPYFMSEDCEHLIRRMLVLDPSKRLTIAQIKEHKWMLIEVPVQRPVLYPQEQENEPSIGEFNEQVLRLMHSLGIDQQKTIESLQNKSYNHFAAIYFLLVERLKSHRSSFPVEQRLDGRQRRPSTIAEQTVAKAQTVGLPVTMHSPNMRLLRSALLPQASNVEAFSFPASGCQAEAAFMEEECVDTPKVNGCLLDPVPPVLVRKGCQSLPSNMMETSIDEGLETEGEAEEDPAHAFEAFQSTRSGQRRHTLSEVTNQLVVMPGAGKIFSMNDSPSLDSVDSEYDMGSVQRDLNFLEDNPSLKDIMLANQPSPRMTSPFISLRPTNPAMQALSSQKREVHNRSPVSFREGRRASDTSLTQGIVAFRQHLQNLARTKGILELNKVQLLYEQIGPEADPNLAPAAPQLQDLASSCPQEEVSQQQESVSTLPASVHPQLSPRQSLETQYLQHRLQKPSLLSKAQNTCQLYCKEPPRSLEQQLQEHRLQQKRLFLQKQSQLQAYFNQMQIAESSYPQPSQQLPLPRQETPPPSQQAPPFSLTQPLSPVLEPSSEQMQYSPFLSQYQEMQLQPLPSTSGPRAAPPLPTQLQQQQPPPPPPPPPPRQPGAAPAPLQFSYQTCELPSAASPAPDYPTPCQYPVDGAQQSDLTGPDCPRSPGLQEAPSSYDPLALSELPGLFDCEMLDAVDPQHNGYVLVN
In words: ADP-Glo kinase assay, SIK2. As to the method:
as §1, §2, §3, §4, §5, §6, §7
In general terms: ADP-Glo turns the ADP formed in a reaction into a luminescent signal.

Structures are written as SMILES. Some results are limits rather than exact numbers.

T1 sequence (Q9Y2K2 whole entry): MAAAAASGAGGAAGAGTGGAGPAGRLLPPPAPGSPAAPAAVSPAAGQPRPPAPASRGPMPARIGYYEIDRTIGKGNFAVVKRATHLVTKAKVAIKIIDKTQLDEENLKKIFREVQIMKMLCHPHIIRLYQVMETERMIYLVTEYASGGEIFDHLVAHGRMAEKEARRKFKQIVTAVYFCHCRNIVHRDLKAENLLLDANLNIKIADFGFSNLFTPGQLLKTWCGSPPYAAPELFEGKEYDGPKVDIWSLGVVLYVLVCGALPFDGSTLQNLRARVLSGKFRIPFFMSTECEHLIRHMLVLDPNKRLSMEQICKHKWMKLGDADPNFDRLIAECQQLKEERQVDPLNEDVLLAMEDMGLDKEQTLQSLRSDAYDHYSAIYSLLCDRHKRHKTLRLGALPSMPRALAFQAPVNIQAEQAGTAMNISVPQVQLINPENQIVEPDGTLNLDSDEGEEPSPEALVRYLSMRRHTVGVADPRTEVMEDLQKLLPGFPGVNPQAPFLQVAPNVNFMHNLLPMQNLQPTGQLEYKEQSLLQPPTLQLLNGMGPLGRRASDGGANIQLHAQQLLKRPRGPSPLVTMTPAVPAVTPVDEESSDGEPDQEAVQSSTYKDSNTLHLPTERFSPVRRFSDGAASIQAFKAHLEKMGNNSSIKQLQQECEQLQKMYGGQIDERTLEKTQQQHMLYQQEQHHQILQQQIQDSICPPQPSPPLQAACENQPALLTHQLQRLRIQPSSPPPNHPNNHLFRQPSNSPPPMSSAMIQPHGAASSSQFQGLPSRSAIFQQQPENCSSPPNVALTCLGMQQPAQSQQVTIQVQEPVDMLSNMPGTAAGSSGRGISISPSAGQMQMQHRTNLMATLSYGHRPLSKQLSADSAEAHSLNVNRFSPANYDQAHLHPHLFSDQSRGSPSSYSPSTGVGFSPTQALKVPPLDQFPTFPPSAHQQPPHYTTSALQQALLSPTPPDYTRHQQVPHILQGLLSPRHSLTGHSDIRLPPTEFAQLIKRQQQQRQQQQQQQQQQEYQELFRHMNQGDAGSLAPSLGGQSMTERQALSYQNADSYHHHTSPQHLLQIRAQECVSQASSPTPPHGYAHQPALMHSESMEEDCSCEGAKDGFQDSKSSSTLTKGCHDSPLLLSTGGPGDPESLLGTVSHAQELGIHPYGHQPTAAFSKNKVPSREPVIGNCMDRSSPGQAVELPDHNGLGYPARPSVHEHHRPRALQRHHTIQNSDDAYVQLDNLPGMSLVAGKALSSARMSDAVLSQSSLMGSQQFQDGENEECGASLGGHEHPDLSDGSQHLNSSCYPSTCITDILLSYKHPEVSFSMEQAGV
T2 sequence (P57059 whole entry): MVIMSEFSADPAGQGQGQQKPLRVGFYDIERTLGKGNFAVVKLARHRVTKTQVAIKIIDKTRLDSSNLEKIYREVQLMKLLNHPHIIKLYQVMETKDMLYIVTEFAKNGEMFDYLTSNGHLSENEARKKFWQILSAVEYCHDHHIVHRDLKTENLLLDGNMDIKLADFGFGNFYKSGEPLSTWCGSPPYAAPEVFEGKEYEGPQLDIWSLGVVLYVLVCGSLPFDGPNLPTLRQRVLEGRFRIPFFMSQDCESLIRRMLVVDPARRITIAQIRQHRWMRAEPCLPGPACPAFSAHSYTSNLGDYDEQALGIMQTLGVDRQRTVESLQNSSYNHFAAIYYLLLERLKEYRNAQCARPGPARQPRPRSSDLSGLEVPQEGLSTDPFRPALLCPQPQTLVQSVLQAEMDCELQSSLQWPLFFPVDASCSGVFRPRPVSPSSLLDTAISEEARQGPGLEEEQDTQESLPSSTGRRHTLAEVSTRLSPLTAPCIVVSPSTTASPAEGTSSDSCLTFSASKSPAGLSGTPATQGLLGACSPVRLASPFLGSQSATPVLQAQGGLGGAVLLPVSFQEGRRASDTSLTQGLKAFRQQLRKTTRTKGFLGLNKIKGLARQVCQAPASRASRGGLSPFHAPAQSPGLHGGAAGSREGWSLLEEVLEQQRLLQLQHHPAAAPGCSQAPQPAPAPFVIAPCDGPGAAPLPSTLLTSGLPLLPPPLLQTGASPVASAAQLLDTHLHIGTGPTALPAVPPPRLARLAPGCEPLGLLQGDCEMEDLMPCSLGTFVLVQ

Broadly, the IC50 is the point on the concentration scale where inhibition reaches its midpoint. For the compound `COC(=O)NCC(F)(F)COc1ccn2c(-c3cc(OC)c(C(=O)NC4CC4)c(OC(F)F)c3)cnc2c1` [Cpd 365, methyl N-[3-[3-[4-(cyclopropylcarbamoyl)-3-(difluoromethoxy)-5-methoxy-phenyl]imidazo[1,2-a]pyridin-7-yl]oxy-2,2-difluoro-propyl]carbamate], the 50% inhibitory concentration (IC50) against SIK3 was 0.01 to 10 nM; on SIK1 it was 10 to 100 nM; against SIK2, 0.01 to 10 nM.

With `COc1cc(-c2cnc3cc(OCC4(O)CCN(C(C)C)C4)ccn23)cc(OC(F)F)c1C(=O)NC1CC1` (stereo not drawn) [Cpd 372, N-cyclopropyl-2-(difluoromethoxy)-4-[7-[(3-hydroxy-1-isopropyl-pyrrolidin-3-yl)methoxy]imidazo[1,2-a]pyridin-3-yl]-6-methoxy-benzamide], the values for the IC50 at SIK3, at SIK1 and on SIK2 were 0.01 to 10 nM, 10 to 100 nM and 0.01 to 10 nM, respectively.

As to `COc1cc(-c2cnc3cc(OCC(=O)O)ccn23)cc(OC(F)F)c1C(=O)NC1CC1` [Cpd 396, 2-[3-[4-(cyclopropylcarbamoyl)-3-(difluoromethoxy)-5-methoxy-phenyl]imidazo[1,2-a]pyridin-7-yl]oxyacetic acid], the IC50 at SIK3 fell in the range of 10 to 100 nM; at SIK1, 100 to 500 nM; against SIK2, 100 to 500 nM.

With `CCOC(=O)CN1CCCCC1COc1ccn2c(-c3cc(OC)c(C(=O)NC4CC4)c(OC(F)F)c3)cnc2c1` (stereo not drawn) [Cpd 397, ethyl 2-[2-[[3-[4-(cyclopropylcarbamoyl)-3-(difluoromethoxy)-5-methoxy-phenyl]imidazo[1,2-a]pyridin-7-yl]oxymethyl]-1-piperidyl]acetate], the concentration for half-maximal inhibition (IC50) at SIK3 is 0.01 to 10 nM; against SIK1 it was 10 to 100 nM; on SIK2, 10 to 100 nM.

Take `COc1cc(-c2cnc3cc(OC4CCOCC4)ccn23)cc(OC(F)F)c1C(=O)NC1CC1` [compound 1, N-cyclopropyl-2-(difluoromethoxy)-6-methoxy-4-(7-tetrahydropyran-4-yloxyimidazo[1,2-a]pyridin-3-yl)benzamide]: the 50% inhibitory concentration (IC50) on SIK3 fell in the range of 0.01 to 10 nM; on SIK1, 100 to 500 nM; against SIK2, 100 to 500 nM.

In the case of `COc1cc(-c2cnc3cc(OC4CCCN(C)C4)ccn23)cc(OC(F)F)c1C(=O)NC1CC1` (stereo not drawn) [compound 2, N-cyclopropyl-2-(difluoromethoxy)-6-methoxy-4-[7-[(1-methyl-3-piperidyl)oxy]imidazo [1,2-a]pyridin-3-yl]benzamide], the IC50 against SIK3 is 0.01 to 10 nM; at SIK1, over 500 nM; against SIK2 it was 10 to 100 nM.

Consider `COc1cc(-c2cnc3cc(OCC(C)(C)OC)ccn23)cc(OC(F)F)c1C(=O)NC1CC1` [compound 3, N-cyclopropyl-2-(difluoromethoxy)-6-methoxy-4-[7-(2-methoxy-2-methyl-propoxy)imidazo[1,2-a]pyridin-3-yl]benzamide], for which the half-maximal inhibitory concentration (IC50) on SIK3 lay in the range of 0.01 to 10 nM; at SIK1, 10 to 100 nM; against SIK2 it was 0.01 to 10 nM.

For the compound `COc1cc(-c2cnc3cc(OC4CCN(C)CC4)ccn23)cc(OC(F)F)c1C(=O)NC1CC1` [compound 7, N-cyclopropyl-2-(difluoromethoxy)-6-methoxy-4-[7-[(1-methyl-4-piperidyl)oxy]imidazo[1,2-a]pyridin-3-yl]benzamide], the concentration for half-maximal inhibition (IC50) was 10 to 100 nM at SIK3, over 500 nM on SIK1 and 10 to 100 nM against SIK2.

Take `COc1cc(-c2cnc3cc(OCC(C)(C)N4CCOCC4)ccn23)cc(OC(F)F)c1C(=O)NC1CC1` [compound 11, N-cyclopropyl-2-(difluoromethoxy)-6-methoxy-4-[7-(2-methyl-2-morpholino-propoxy)imidazo[1,2-a]pyridin-3-yl]benzamide]: the figures for the IC50 against SIK3, against SIK1 and on SIK2 were 0.01 to 10 nM, 100 to 500 nM and 10 to 100 nM, respectively.

In the case of `COc1cc(-c2cnc3cc(OC(C)CN4CCOCC4)ccn23)cc(OC(F)F)c1C(=O)NC1CC1` (stereo not drawn) [compound 12, N-cyclopropyl-2-(difluoromethoxy)-6-methoxy-4-[7-(1-methyl-2-morpholino-ethoxy)imidazo[1,2-a]pyridin-3-yl]benzamide], the IC50 against SIK3 was 10 to 100 nM; against SIK1, over 500 nM; at SIK2, 100 to 500 nM.

Source of the values: patent publication US12264156B2, “Compounds and pharmaceutical compositions thereof for the treatment of diseases” (GALAPAGOS NV, priority 2018, dated 2025).
